# In patent publication US8778912B2, “Composition of dialysis liquid comprising crystallisation inhibitor substances” (Universitat de les Illes Balears, priority 2008, dated 2014):
# Experiments:
# [1] = Dialysis of artificial plasma with 5 mM etidronate against dialysing liquid without etidronate; type: in vitro ADME; details: after a 20-hour period, pH 7.4
# Protocol: An artificial plasma was prepared with 5 mM of etidronate, regulating the ionic strength with 0.15 M NaCl. 25 ml of this solution were dialysed for 20 hours against a 1-l volume of a 0.15 M NaCl solution without etidronate (dialysing liquid model). The pH of both solutions was adjusted to 7.4 using bicarbonate buffer.
# (§1) 5-ml aliquots of the dialysing liquid were collected at times 0, 1, 3, 6 and 20 hours, and the quantity of etidronate was determined in each of them. Moreover, the concentration of etidronate in the artificial plasma was determined at times 0 and 20 hours.
# [2] = Dialysis of artificial plasma with 5 mM etidronate against dialysing liquid with the same concentration of etidronate; type: in vitro ADME; details: 20 hours dialysis; 5 mM etidronate in both plasma and dialysing liquid, pH 7.4
# Protocol: An artificial plasma was prepared with 5 mM of etidronate, regulating the ionic strength with 0.15 M NaCl. 25 ml of this solution were dialysed for 20 hours against a 1-l volume of a 0.15 M NaCl solution with the same concentration of etidronate as the plasma. The pH of both solutions was adjusted to 7.4 using bicarbonate buffer.
# as §1
# [3] = Dialysis of artificial plasma with 1 mM etidronate against dialysing liquid with 5 times greater etidronate concentration; type: in vitro ADME
# Protocol: An artificial plasma was prepared with 1 mM of etidronate, regulating the ionic strength with 0.15 M NaCl. 25 ml of this solution were dialysed for 20 hours against a 1-l volume of a 0.15 M NaCl solution with a concentration of etidronate 5 times greater than that of the plasma. The pH of both solutions was adjusted to 7.4 using bicarbonate buffer.
# as §1
# [4] = Dialysis of artificial plasma with 1.5 mM phytate against dialysing liquid without phytate; type: in vitro ADME; details: after a 20-hour period, pH 7.4
# Protocol: An artificial plasma (liquid with a composition similar to that of plasma) was prepared with 1.5 mM phytate, regulating the ionic strength with 0.15 M NaCl. 25 ml of this solution were dialysed for 20 hours against a 1-l volume of a 0.15 M NaCl solution without phytate (dialysing liquid model). The pH of both solutions was adjusted to 7.4 using bicarbonate buffer. 5-ml aliquots of the dialysing liquid were collected at times 0, 1, 3, 6 and 20 hours, and the quantity of phytate in each of them was determined. Moreover, the concentration of phytate in the artificial plasma was determined at times 0 and 20 hours.
# [5] = Dialysis of artificial plasma with 1.5 mM phytate against dialysing liquid with the same concentration of phytate; type: in vitro ADME; details: 20 hours dialysis; 1.5 mM phytate in both plasma and dialysing liquid, pH 7.4
# Protocol: An artificial plasma was prepared with 1.5 mM of phytate, regulating the ionic strength with 0.15 M NaCl. 25 ml of this solution were dialysed for 20 hours against a 1-l volume of a 0.15 M NaCl solution with the same concentration of phytate as the plasma. The pH of both solutions was adjusted to 7.4 using bicarbonate buffer. 5-ml aliquots of the dialysing liquid were collected at times 0, 1, 3, 6 and 20 hours, and the quantity of phytate was determined in each of them. Moreover, the concentration of phytate in the artificial plasma was determined at times 0 and 20 hours.
# [6] = Dialysis of artificial plasma with 300 μM phytate against dialysing liquid with 5 times greater phytate concentration; type: in vitro ADME
# Protocol: An artificial plasma was prepared with 300 μM of phytate, regulating the ionic strength with 0.15 M NaCl. 25 ml of this solution were dialysed for 20 hours against a 1-l volume of a 0.15 M NaCl solution with a concentration of phytate 5 times greater than that of the plasma. The pH of both solutions was adjusted to 7.4 using bicarbonate buffer. 5-ml aliquots of the dialysing liquid were collected at times 0, 1, 3, 6 and 20 hours, and the quantity of phytate was determined in each of them. Moreover, the concentration of phytate in the artificial plasma was determined at times 0 and 20 hours.
# [7] = Intravenous administration to rats on a diet without phytate; urinary and plasma phytate; type: in vivo, male Wistar rats; details: treated group, 3 intravenous doses of 0.61 mmol/kg (400 mg/kg) 12 hours apart
# Protocol: 6 male Wistar rats approximately 250 g in weight were acclimated from 7 dias in the animal house (T=[…] and humidity=60±5%) with 12:12-hour light-darkness cycles. The rats were housed in Plexiglas cages, with one animal per cage, and fed with food and drink ad libitum.
# Following the acclimation period, the animals were randomly divided into two groups with 3 rats each, a control group (with a diet without phytate, thereby simulating a post-dialysis physiological condition) and a treated group, which received 3 intravenous doses of 0.61 mmol/kg (400 mg/kg) separated by 12-hour periods. Following the last administration, 24-hour urine samples were collected in order to determine the phytate and, subsequently, the animals were anaesthesised and blood samples were collected.
# The procedures used in this experiment were performed in accordance with Directive 86/609/EEC regarding the protection of animals used for experimental and scientific purposes.
Structure (SMILES),"quantity of etidronate in the dialysis solution, as share of the initial quantity in the artificial plasma [1] [%]",variation in the concentration of etidronate in the plasma and the dialysing liquid [2],"change of plasma concentration of etidronate (in words) ([3]; 20-hour period, dialysis liquid with etidronate concentration greater than that of the plasma)","etidronate from the dialysis liquid that enters into the artificial plasma ([3]; 20 hours dialysis, plasma 1 mM etidronate, dialysis liquid 5 times greater, pH 7.4)","increase of the concentration of etidronate in the artificial plasma ([3]; 20 hours dialysis, plasma 1 mM etidronate, dialysis liquid 5 times greater, from ratio of initial volumes and concentrations) [%]","quantity of phytate in the dialysis solution, as share of the initial quantity in the artificial plasma [4] [%]",variation in the concentration of phytate in the plasma and the dialysing liquid [5],"change of plasma concentration of phytate (in words) ([6]; 20-hour period, dialysis liquid with phytate concentration greater than that of the plasma)","phytate from the dialysis liquid that enters into the artificial plasma ([6]; 20 hours dialysis, plasma 300 μM phytate, dialysis liquid 5 times greater, pH 7.4)","increase of the concentration of phytate in the artificial plasma ([6]; 20 hours dialysis, plasma 300 μM phytate, dialysis liquid 5 times greater, from ratio of initial volumes and concentrations) [%]","concentration at 24 h ([7]; male, Wistar, rat, plasma, blood 24 hours after last administration, read-out: plasma level of phytate) [ng/mL]",urinary excretion of phytate ([7]; 24-hour urine after last administration) [µg]
"CC(O)(P(=O)(O)O)P(=O)(O)O [etidronate, etidronic acid]",95.6,no variations,increase the plasma concentration,up to 1.65%,330,–,–,–,–,–,–,–
"O=P(O)(O)O[C@H]1[C@H](OP(=O)(O)O)[C@@H](OP(=O)(O)O)[C@H](OP(=O)(O)O)[C@@H](OP(=O)(O)O)[C@H]1OP(=O)(O)O [phytate, myo-inositol hexaphosphate]",–,–,–,–,–,40,no variations,increase the plasma concentration,up to 0.75%,140,1000,72 ± 10
